The results in this text go back to patent publication US20060252706A1, “Composition for slimming” (priority 2003, published 2006).

Series [1] relates to skin of a New Zealand white rabbit. Briefly: Skin irritation (Draize Primary Irritation Index). As for the experimental part: Skin irritations caused by theanine, caffeine, genistein, L-carnitine and catechin were measured observing edema and erythema on the skin of a New Zealand white rabbit.
Vehicle, 10% of theanine, caffeine, genistein, L-carnitine, catechin or mixture thereof were applied on the skin of a New Zealand white rabbit, twice a day for 4 days, total 8 times. After application, total skin irritation index was calculated by summing up the scores of erythema and edema. The skin irritation index was calculated according to Draize's skin Primary Irritation Index (P.I.I.) (Draize, J. H., Appraisal of the safety of chemical in foods, drugs and cosmetics).

Another series has as its system 3T3-L1 cells. The series is described as follows: Accumulation of neutral fat in fat cells (GPO-trinder, absorption at 540 nm). To be noted: 3T3-L1 cells treated during cell differentiation; compared with control; FIG. 4. It is filed as cell-based, rat. As for the experimental part:
(§1) 3T3-L1 cell, fibroblast cell line of […], was inoculated in 6 well culture plate with 1×10^5cells/well and cultured in DMEM (Dulbecos modified eagles medium, GIBCO BRL, Life Technologes) containing 10% of fetal bovine serum (FBS). After 2 days of culture, culture medium was changed with a new DMEM (containing 10% FBS), and cultured further 2 days. Then the culture cell was deposited in a new DMEM (containing 10% FBS) containing 1 μg/ml of insulin, 0.5 mM of IBMX and 0.25 μM of dexamethasone to induce differentiation, after 2 days, the culture medium was changed with a new DMEM containing insulin, and cultured for 5 days. After 5 days of culture, the culture medium was changed with a normal DMEM (containing 10% FBS), and observed until cells changed to fat cells (adipocytes).
3T3-L1 fat cells differentiated in the Reference Example 2 were washed with PBS (phosphate buffered saline) three times, and harvested with extraction buffer (20 mM of Tris, 1 mM of EDTA and 1 mM of 2-mercaptoethanol). The harvested cells passed G26 needle 6 times on an ice base, centrifuged at 15000×g, 4° C. for 3 minutes and the supernatant was gathered to obtain cell extracts. […]
Neutral fats in the cell extracts obtained same as Experimental Example 3 underwent chromphoric reaction using GPO-trinder kit purchased from Sigma (St. Louis, Mo., U.S.A.), and absorption was measured at 540 nm using ELISA reader.

Series [2] concerns 3T3-L1 fat cells. The series is described as follows: Decomposition of fat: glycerol isolated into culture medium from 3T3-L1 fat cells. It is filed as cell-based, rat. To be noted: FIG. 1. As for the experimental part: as §1
The degree of the decomposition of fat was observed by measuring the concentration of glycerol isolated into the culture medium from fat cell. Measurement of the quantity of the glycerol was performed with chromphoric reaction method using GPO-trinder kit purchased from Sigma (St. Louis, Mo., U.S.A.), and absorption was measured in 540 nm using ELISA reader, then the result of each component was calculated based on the data of the control settled to be 100%. […]

In the next series the test system is β3-adrenergic receptor. Briefly: Expression of β3-adrenergic receptor by RT-PCR in 3T3-L1 fat cells. The series is classed as cell-based, rat. To be noted: 0.005%, 24 hours, FIG. 2. As for the experimental part:
as §1
In order to clarify the mechanism of acceleration of decomposition of neutral fat by the theanine, 3T3-L1 fat cells differentiated in the Reference Example 2 were used. The cells were treated with 0.005% of theanine purchased from KuridaKogyo (Japan) (more than 97%) and comparative materials (caffeine, control), and 24 hours later, RNAs were extracted from the cells and performed RT-PCR. The RT-PCR kit was purchased from TaKaRa, and primer of β3 -adrenergic receptor was purchased from Bioneer.

The test system of series [3] is 3T3-L1 fat cells. The series is described as follows: Cell toxicity of theanine at high concentration. It is filed as cell-based, mouse.
Where [4] appears, read: New Zealand white, rabbit, in vivo, 4 days.
Where [5] appears, read: New Zealand white rabbit, compared with control.

Structures are written as SMILES.

In the case of `C[N+](C)(C)C[C@H](O)CC(=O)[O-]` [L-carnitine], the “Primary Irritation Index (0˜4)” value in series [1] (setting [4]) was 0.7. The skin irritation entry in series [1] (rabbit, in vivo) is on record as “do not cause skin irritation”.
Turning to `Cn1c(=O)c2c(ncn2C)n(C)c1=O` [caffeine, reference compound], the skin irritation entry in series [1] (setting [5]) is recorded as “do not cause skin irritation”. For the same molecule, the “Primary Irritation Index (0˜4)” value in series [1] (setting [4]) was determined as 0.7.
As for `CCNC(=O)CC[C@H](N)C(=O)O` [theanine], in series [1] (setting [4]), the “Primary Irritation Index (0˜4)” value amounted to 0.8. In series [1] (rabbit, in vivo), the skin irritation entry is listed as “do not cause skin irritation”. For the same molecule, the “amount of neutral fat” value in the series with 3T3-L1 cells was “decreased”. Moreover, in the series with 3T3-L1 fat cells [2] (compared with the control (100%)), the “concentration of glycerol isolated into the culture medium from fat cell” value is “increased”. Also, the “effect of decomposition of fat compared with caffeine (positive comparative control)” value in the series on 3T3-L1 fat cells [2] (same concentration of caffeine) is “more excellent effect of decomposition of fat than that of caffeine”. For the same molecule, the “expression of β3-adrenergic receptor” value with β3-adrenergic receptor is “increases”. In the series on 3T3-L1 fat cells [3], the cell toxicity result is “does not cause cell toxicity”.
As to `O=c1c(-c2ccc(O)cc2)coc2cc(O)cc(O)c12` [genistein], the “Primary Irritation Index (0˜4)” value in series [1] (10% solution on rabbit skin, twice a day for 4 days, total 8 times) was 0.8. In series [1] (setting [5]), the skin irritation entry is recorded as “do not cause skin irritation”.
